The values below come from ChEMBL document CHEMBL2169808, “Discovery of pyrazole carboxylic acids as potent inhibitors of rat long chain L-2-hydroxy acid oxidase” (Bioorg Med Chem Lett, 2012).

The target of test [1] is T1, 2-Hydroxyacid oxidase 2 (Rattus norvegicus, UniProt Q07523).
T1 sequence (Q07523 whole entry): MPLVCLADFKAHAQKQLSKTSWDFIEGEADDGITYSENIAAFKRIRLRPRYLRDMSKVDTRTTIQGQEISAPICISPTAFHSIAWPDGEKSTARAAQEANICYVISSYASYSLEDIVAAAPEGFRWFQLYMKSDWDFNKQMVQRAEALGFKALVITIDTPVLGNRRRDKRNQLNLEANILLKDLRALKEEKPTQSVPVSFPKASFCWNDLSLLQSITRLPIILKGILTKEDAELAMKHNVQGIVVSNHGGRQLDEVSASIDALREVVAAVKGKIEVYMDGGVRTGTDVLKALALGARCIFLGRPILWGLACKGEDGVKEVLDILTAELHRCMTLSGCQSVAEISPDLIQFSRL
As to the kind of experiment: Inhibition of rat Hao2-mediated oxidation of 2-hydroxyoctanoic acid assessed as proportionate release of H2O2.

The target of test [2] is T2, 2-Hydroxyacid oxidase 2 (Homo sapiens) (UniProt Q9NYQ3).
T2 sequence (whole entry): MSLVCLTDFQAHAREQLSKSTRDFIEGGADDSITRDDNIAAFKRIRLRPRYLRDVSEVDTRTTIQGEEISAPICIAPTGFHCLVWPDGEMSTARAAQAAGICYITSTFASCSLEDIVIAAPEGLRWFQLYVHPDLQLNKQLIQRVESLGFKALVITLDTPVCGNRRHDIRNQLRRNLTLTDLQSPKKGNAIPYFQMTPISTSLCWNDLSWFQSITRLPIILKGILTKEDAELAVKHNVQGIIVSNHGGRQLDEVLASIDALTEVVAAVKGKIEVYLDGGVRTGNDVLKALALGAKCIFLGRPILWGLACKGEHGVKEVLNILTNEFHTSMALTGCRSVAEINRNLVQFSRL
The test is described as follows: Inhibition of human Hao2-mediated oxidation of 2-hydroxyoctanoic acid assessed as proportionate release of H2O2 at 1 uM.

The species entered for test [3] is Rattus norvegicus. As to the kind of experiment: Selectivity ratio of IC50 for rat Hao1 to IC50 for rat Hao2.
Test [4] deals with T2, 2-Hydroxyacid oxidase 2 (Homo sapiens). The test is described as follows: Inhibition of human Hao2-mediated oxidation of 2-hydroxyoctanoic acid assessed as proportionate release of H2O2 at 10 uM.

The IC50 is the midpoint of a concentration-inhibition curve. For orientation: inhibition means how much of the control response was suppressed. For the compound `Cc1n[nH]c(C(=O)O)c1Cc1cccc(-c2ccncc2)c1`, the IC50 in test [1] amounted to 300 nM. For the same compound, the inhibition in test [2] was determined as 13%; in test [4], 49%. Further, the Ratio IC50 in test [3] was over 150.
For `Cc1[nH]nc(C(=O)O)c1Cc1cccc(C(N)=O)c1`, in test [1], the IC50 was found to be 900 nM.
For the compound `Cc1[nH]nc(C(=O)O)c1Cc1cccc(-c2ccc(C#N)cc2)c1`, the IC50 in test [1] turned out to be 300 nM.
Regarding `Cc1n[nH]c(C(=O)O)c1Cc1cccc(-c2ccc(C(=O)O)cc2)c1`, the IC50 in test [1] turned out to be 1100 nM. Moreover, the inhibition in test [2] stood at 3%; in test [4], 15%. The Ratio IC50 in test [3] was over 150.
Consider `Cc1n[nH]c(C(=O)O)c1Cc1cccc(-c2cccnc2)c1`, for which the inhibition in test [2] was found to be 13%; in test [4], 45%. Moreover, in test [3], the Ratio IC50 was over 150.
As for `Cc1n[nH]c(C(=O)O)c1Cc1cccc(Oc2ccccc2)c1`, the 50% inhibitory concentration (IC50) in test [1] came out at 600 nM. The inhibition in test [2] is 12%; in test [4] it was 41%. Besides, the Ratio IC50 in test [3] was over 150.
As for `Cc1n[nH]c(C(=O)O)c1Cc1cccc(C(N)=O)c1`, the inhibition in test [2] and in test [4] was 8% each time. The Ratio IC50 in test [3] was over 150.
As for `Cc1n[nH]c(C(N)=O)c1Cc1cccc(-c2ccc(F)cc2)c1`, the inhibition in test [2] stood at 1%; in test [4], 14%.
For `Cc1[nH]nc(C(=O)O)c1Cc1ccc(-c2ccc(C(F)(F)F)cc2)cc1`, the IC50 in test [1] stood at 1100 nM.
Take `Cc1n[nH]c(C(=O)O)c1Cc1cccc(-c2ccc(C(F)(F)F)cc2)c1`: the inhibition in test [2] was found to be 8%; in test [4], 30%. Further, in test [3], the Ratio IC50 is over 150.
For the compound `Cc1n[nH]c(C(=O)O)c1Cc1ccc(-c2ccc(C(F)(F)F)cc2)cc1`, the inhibition in test [2] turned out to be 5%; in test [4], 14%. Also, the Ratio IC50 in test [3] was over 150.
Regarding `Cc1n[nH]c(C(=O)O)c1Cc1cccc(-c2ccc(F)cc2)c1`, the inhibition in test [2] worked out at 16%; in test [4] it was 55%. For the same compound, the Ratio IC50 in test [3] was over 150.
Regarding `Cc1[nH]nc(C(=O)O)c1Cc1cccc(-c2ccc(C(F)(F)F)cc2)c1`, the half-maximal inhibitory concentration (IC50) in test [1] was determined as 400 nM.
Consider `Cc1[nH]nc(C(=O)O)c1Cc1ccc(C(N)=O)cc1`, for which, in test [1], the IC50 is 1100 nM.
With `Cc1[nH]nc(C(=O)O)c1Cc1cccc(-c2cccc(F)c2)c1`, the IC50 in test [1] stood at 500 nM.
With `Cc1n[nH]c(C(=O)O)c1Cc1cccc(C(F)(F)F)c1`, the inhibition in test [2] was determined as 5%; in test [4], 23%. For the same compound, in test [3], the Ratio IC50 is over 150.
As to `Cc1n[nH]c(C(=O)O)c1Cc1cccc(-c2ccc(C#N)cc2)c1`, the figures for the inhibition in test [2] and in test [4] were 13% and 46%, respectively. The Ratio IC50 in test [3] is over 150.
Turning to `Cc1n[nH]c(C(=O)O)c1CCc1ccc(-c2ccc(F)cc2)cc1`, the IC50 in test [1] came out at 900 nM. In addition, the inhibition in test [2] came out at 5%; in test [4] it was 39%. In addition, in test [3], the Ratio IC50 is over 150.
Turning to `Cc1[nH]nc(C(=O)O)c1Cc1ccccc1C(F)(F)F`, the concentration for half-maximal inhibition (IC50) in test [1] turned out to be 1300 nM.
`Cc1n[nH]c(C(=O)O)c1Cc1ccc2ccccc2n1`: in test [1], the IC50 stood at 1700 nM. Besides, the inhibition in test [2] was found to be 2%; in test [4], 18%. Besides, the Ratio IC50 in test [3] was over 150.
Turning to `Cc1[nH]nc(C(=O)O)c1Cc1cccc(C(F)(F)F)c1`, in test [1], the IC50 came to 300 nM.
Take `Cc1n[nH]c(C(=O)O)c1Cc1cccc(-c2cccc(F)c2)c1`: the inhibition in test [2] is 20%; in test [4], 50%. Moreover, in test [3], the Ratio IC50 was over 150.
As to `Cc1[nH]nc(C(=O)O)c1Cc1ccc(-c2ccc(OC(F)(F)F)cc2)cc1`, the IC50 in test [1] is 2000 nM.
With `Cc1n[nH]c(C(=O)O)c1Cc1cccc2ccccc12`, the inhibition in test [2] was 22%; in test [4] it was 59%. Further, in test [3], the Ratio IC50 was over 150.
As to `CCOc1[nH]nc(C(=O)O)c1Cc1cccc(-c2ccc(F)cc2)c1`, the IC50 in test [1] stood at 1200 nM.
In the case of `Cc1[nH]nc(C(=O)O)c1Cc1ccc(F)cc1`, the IC50 in test [1] was found to be 700 nM.
Regarding `O=C(O)c1[nH]nc(Cc2ccccc2)c1Cc1cccc(-c2ccc(F)cc2)c1`, the inhibition in test [2] worked out at 10%; in test [4], 8%. Also, in test [3], the Ratio IC50 is over 150.
In the case of `Cc1n[nH]c(C(=O)O)c1Cc1ccccc1C(F)(F)F`, the inhibition in test [2] was 13%; in test [4] it was 38%. Moreover, the Ratio IC50 in test [3] was over 150.
In the case of `O=C(O)c1[nH]nc(CCc2ccccc2)c1Cc1cccc(-c2ccc(F)cc2)c1`, the inhibition in test [2] was determined as 4%; in test [4], 16%. Further, the Ratio IC50 in test [3] was over 150.
On to `Cc1[nH]nc(C(=O)O)c1Cc1cccc(C#N)c1`, for which, in test [1], the IC50 stood at 500 nM.
For `Cc1n[nH]c(C(=O)O)c1Cc1ccc(F)cc1`, the results for the inhibition in test [2] and in test [4] were 7% and 14%, respectively. In addition, the Ratio IC50 in test [3] is over 150.
In the case of `CCc1[nH]nc(C(=O)O)c1Cc1cccc(-c2ccc(F)cc2)c1`, the IC50 in test [1] worked out at 300 nM.
Consider `Cc1n[nH]c(C(=O)O)c1Cc1ccc(Oc2ccccc2)cc1`, for which the inhibition in test [2] is 10%; in test [4], 43%. In test [3], the Ratio IC50 is over 150.
Regarding `Cc1[nH]nc(C(=O)O)c1Cc1cccc2ccccc12`, the IC50 in test [1] turned out to be 200 nM.
As for `Cc1n[nH]c(C(=O)O)c1Cc1cccc(-c2ccc(CC(=O)O)cc2)c1`, the figures for the inhibition in test [2] and in test [4] were 2% and 21%, respectively. Also, the Ratio IC50 in test [3] was over 150.
In the case of `Cc1[nH]nc(C(=O)O)c1Cc1ccc(Oc2ccccc2)cc1`, the IC50 in test [1] was 500 nM.
In the case of `Cc1n[nH]c(C(=O)O)c1Cc1ccc(-c2ccc(OC(F)(F)F)cc2)cc1`, the inhibition in test [2] turned out to be 11%; in test [4], 29%. In addition, in test [3], the Ratio IC50 was over 150.
Regarding `Cc1[nH]nc(C(=O)O)c1Cc1cccc(-c2ccc(CC(=O)O)cc2)c1`, the IC50 in test [1] was determined as 400 nM.
For `Cc1n[nH]c(C(=O)O)c1Cc1ccc(-c2ccc(F)cc2)cc1`, the inhibition was 11% in test [2] and 25% in test [4]. The Ratio IC50 in test [3] is over 150.
On to `CCc1n[nH]c(C(=O)O)c1Cc1cccc(-c2ccc(F)cc2)c1`, for which the inhibition was 5% in test [2] and 36% in test [4]. The Ratio IC50 in test [3] was over 150.
Take `Cc1n[nH]c(C(=O)O)c1Cc1cc2ccccc2s1`: the inhibition was 8% in test [2] and 29% in test [4]. For the same compound, the Ratio IC50 in test [3] was over 150.
For the compound `Cc1[nH]nc(C(=O)O)c1Cc1ccc(-c2ccc(F)cc2)cc1`, in test [1], the IC50 turned out to be 400 nM.
`Cc1n[nH]c(C(=O)O)c1Cc1ccc(C(N)=O)cc1`: the inhibition was 0% in test [2] and 8% in test [4]. Also, the Ratio IC50 in test [3] is over 150.
Regarding `Cc1[nH]nc(C(N)=O)c1Cc1cccc(-c2ccc(F)cc2)c1`, the IC50 in test [1] amounted to 1400 nM.
Regarding `CCOc1n[nH]c(C(=O)O)c1Cc1cccc(-c2ccc(F)cc2)c1`, the inhibition in test [2] was determined as 1%; in test [4] it was 17%. Further, the Ratio IC50 in test [3] is over 150.
Take `Cc1n[nH]c(C(=O)O)c1Cc1cccc(C#N)c1`: the inhibition in test [2] turned out to be 6%; in test [4] it was 19%. Also, in test [3], the Ratio IC50 is over 150.
For the compound `O=C(O)c1n[nH]c(Cc2ccccc2)c1Cc1cccc(-c2ccc(F)cc2)c1`, the IC50 in test [1] is 700 nM.
For `O=C(O)c1n[nH]c(CCc2ccccc2)c1Cc1cccc(-c2ccc(F)cc2)c1`, the IC50 in test [1] was 800 nM.
In the case of `Cc1[nH]nc(C(=O)O)c1Cc1cccc(-c2cccnc2)c1`, the IC50 in test [1] came out at 400 nM.
